Results as given in patent US20140377340A1, “HLA-DR BINDING PEPTIDES AND THEIR USES” (priority 2007, published 2014).

Key:
[1] = test system: peptide-specific T cells in PBMC; test: 10-day interferon-gamma ELIspot with PBMC of breast or ovarian cancer patients and healthy controls; assay type: cell-based, human; settings: for Percent of patients with responses: fraction of breast or ovarian cancer patients with mean T cell values above cutoff (mean + 2 SD of healthy donors)
Source text: Each panel represents a unique peptide and each data point is derived from one individual. The grey box (i.e. cutoff) delineates the region that constitutes the mean and two standard deviations calculated from the normal healthy individuals. The percentages represent the fraction of patients that had mean T cell values above the cutoff. The peptides that are circled are those in which a higher fraction of the patients responded compared to the normal healthy controls. These peptides are considered to be the best vaccine candidates. However, it is clear that the rigidness of this approach could potentially result in many false negatives. […] Despite this, we identified 5 candidates to move forward. The fidelity of this approach is evident from a prior study which has already shown that a HER-2/neu peptide, p884-899, which encompasses the binding motif of p885, is an HLA-DR4 epitope.
Enzyme-linked immunosorbent spot assay. A 10-day ELlspot for detecting low-frequency T cells was used to determine reactivity to the tumor antigen peptides (Table 1) as described (Knutson K L et al. J Clin Onc 2006;24: 4254-61). […] PMA/Ionomycin and the CEF pool were used as positive non-tumor related controls as previously described (Knutson, 2006).
Using predictive algorithms discussed above, candidate HLA-DR1-binding epitopes were identified. […] An interferon-gamma ELIspot assay was used to assess immunity to the indiscriminate binding peptides in 48 patients with either breast or ovarian cancer and 18 healthy controls.
Using an ELlspot assay with a limit of detection of approximately […], patient-derived PBMC were screened for reactivity against all of the HLA-DR binding peptides.

[2] = test system: 15 different HLA-DR molecules; test: HLA-DR binding assays, panel of 15 different HLA-DR molecules (breadth of binding); settings: number of the 15 HLA-DR molecules bound (binders: 1000 nM or better)
purified HLA DRB1*0101 = molecular target: T1, purified HLA DRB1*0101 (Homo sapiens, UniProt P01903+P01911, A100R/D57E/F55L/F60I/F76Y/I96L/L162R/M171V/P40L/Q125E/R42F/V115G/Y59C); test: HLA-DR radioligand binding inhibition assay, DRB1*0101; settings: IC50 nM purified HLA DRB1 *0101, purified HLA DRB1*0101
T1 construct: purified from EBV transformed homozygous cell lines or single MHC allele transfected 721.221, C1R, or fibroblast lines; made in house
Summary of the method: (§1)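 Competition binding: 1-10 nM radiolabeled peptide + 1 μM–1 nM HLA-DR, protease inhibitor cocktail, 2 d, RT or 37° C., pH 4–7. LB3.1 capture 3 h in 0.05% NP40/PBS; scintillation counting.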

purified HLA DRB1*0301 = molecular target: T2, purified HLA DRB1*0301 (Homo sapiens, UniProt P01903+P01911, A100K/A102G/A103R/A169T/F55Y/I96L/K41T/L162R/M171V/P40S/Q125H/Q178H/Q39Y/R42S/S66N/T106N/T262R/W38E/Y61H); test: HLA-DR radioligand binding inhibition assay, DRB1*0301; settings: IC50 nM purified HLA DRB1 *0301, purified HLA DRB1*0301
T2 construct: purified from EBV transformed homozygous cell lines or single MHC allele transfected 721.221, C1R, or fibroblast lines; made in house
Description: (§2) Instead, wells of an opaque white 96-well Optiplate (Packard) are coated with 3 μg (100 μl@ 30 μg/ml) of HLA-specific antibody (Ab) that “capture” complexes of radiolabeled MHC and unlabeled peptide transferred from the molecular binding assay plate in 100 μl of 0.05% NP40/PBS. After a 3-hour incubation period, the supernatant is decanted and scintillation fluid (Microscint 20) added. Captured complexes are then measured on a microplate scintillation and luminescence counter (TopCount NXTTM; Packard).
(§3) HLA-DR purification. Fifteen distinct HLA-DR molecules were used in quantitative assays to measure the binding of peptides to solubilized HLA-DR molecules. […] Briefly, columns of inactivated Sepharose CL4B and Protein A Sepharose were used as pre-columns. HLA-DR molecules were captured by passage of lysates over LB3.1 monoclonal antibody (anti-HLA-DRA) columns. Antibody columns were washed with 10 mM Tris-HCL, pH8.0 with 1% (v/v) NP-40, followed by PBS containing 0.4% (w/v) n-octylglucoside.
(§4) Briefly, 1-10 nM of radiolabeled peptide was co-incubated for 2 days at either room temperature or 37° C. with 1 μM to 1 nM purified HLA-DR molecules in the presence of a cocktail of protease inhibitors. Assays were performed at various pH conditions, ranging from pH 4 to pH 7. […] After incubation, the percentage of HLA-DR-bound radioactivity is determined by capturing HLA-DR/peptide complexes on Optiplates (Packard Instruments, Meriden, Conn.) coated with the LB3.1 antibody and determining bound counts per minute using the TopCount microscintillation counter (Packard Instruments).

purified HLA DRB1*0401 = molecular target: T3, purified HLA DRB1*0401 (Homo sapiens, UniProt P01903+P01911, A100K/A169T/F76Y/I96L/K127E/L162R/M171V/N62H/P40V/Q125Y/R42H/S133A/S149N/S66Y/V115G/V209L/W38E); test: HLA-DR radioligand binding inhibition assay, DRB1*0401; settings: IC50 nM purified HLA DRB1 *0401, purified HLA DRB1*0401
T3 construct: purified from EBV transformed homozygous cell lines or single MHC allele transfected 721.221, C1R, or fibroblast lines; made in house
Summary of the method: as §1

purified HLA DRB1*0802 = molecular target: T4, purified HLA DRB1*0802 (Homo sapiens, UniProt P01903+P01911, A100R/A103L/A169T/F76Y/H45Y/I96F/K41T/L162R/M171V/P40S/Q125H/Q178H/Q39Y/Q99D/R218S/R42G/S66Y/V115G/W38E); test: HLA-DR radioligand binding inhibition assay, DRB1*0802; settings: IC50 nM purified HLA DRB1 *0802, purified HLA DRB1*0802
T4 construct: purified from EBV transformed homozygous cell lines or single MHC allele transfected 721.221, C1R, or fibroblast lines; made in house
Description: as §2
as §3, with “n-octylglucoside. […] The pH was reduced to 8.0 and the eluates were concentrated by centrifugation in Centriprep 30 concentrators at 2000 rpm (Amicon, Beverly, Mass.).” for “n-octylglucoside.”
as §4, with “Instruments). […] Competitor peptides are tested in 2-4 complete, independent experiments, at concentrations ranging from […].” for “Instruments).”

purified HLA DRB1*1201 = molecular target: T5, purified HLA DRB1*1201 (Homo sapiens, UniProt P01903+P01911, A100R/A169T/D57E/D86V/F55L/H45Y/K41T/L162R/M171V/P40S/Q125H/Q178H/Q39Y/Q99D/R42G/S66L/T262R/V114A/V67L/W38E/Y59H/Y61H/Y89S); test: HLA-DR radioligand binding inhibition assay, DRB1*1201
T5 construct: purified from EBV transformed homozygous cell lines or single MHC allele transfected 721.221, C1R, or fibroblast lines; made in house
Description: as §2
as §3, with “n-octylglucoside. […] The pH was reduced to 8.0 and the eluates were concentrated by centrifugation in Centriprep 30 concentrators at 2000 rpm (Amicon, Beverly, Mass.).” for “n-octylglucoside.”
as §4, with “Instruments). […] Competitor peptides are tested in 2-4 complete, independent experiments, at concentrations ranging from […].” for “Instruments).”

purified HLA DRB1*1501 = molecular target: T6, purified HLA DRB1*1501 (Homo sapiens, UniProt P01903+P01911); test: HLA-DR radioligand binding inhibition assay, DRB1*1501
T6 construct: purified from EBV transformed homozygous cell lines or single MHC allele transfected 721.221, C1R, or fibroblast lines; made in house
Summary of the method: as §1

purified HLA DRB3*0101 = molecular target: T7, purified HLA DRB3*0101 (Homo sapiens, UniProt P01903+P79483); test: HLA-DR radioligand binding inhibition assay, DRB3*0101; settings: IC50 nM purified HLA DRB3 *0101, purified HLA DRB3*0101
T7 construct: purified from EBV transformed homozygous cell lines or single MHC allele transfected 721.221, C1R, or fibroblast lines; made in house
Description: as §2
as §3, with “n-octylglucoside. […] The pH was reduced to 8.0 and the eluates were concentrated by centrifugation in Centriprep 30 concentrators at 2000 rpm (Amicon, Beverly, Mass.).” for “n-octylglucoside.”
as §4, with “Instruments). […] Competitor peptides are tested in 2-4 complete, independent experiments, at concentrations ranging from […].” for “Instruments).”

purified HLA DRB5*0101 = molecular target: T8, purified HLA DRB5*0101 (Homo sapiens, UniProt P01903+Q30154); test: HLA-DR radioligand binding inhibition assay, DRB5*0101; settings: IC50 nM purified HLA DRB5 *0101, purified HLA DRB5*0101
T8 construct: purified from EBV transformed homozygous cell lines or single MHC allele transfected 721.221, C1R, or fibroblast lines; made in house
Summary of the method: as §1

Total XRN [2]	IC50 (purified HLA DRB1*0101) [nM]	IC50 (purified HLA DRB1*0301) [nM]	IC50 (purified HLA DRB1*0401) [nM]	IC50 (purified HLA DRB1*0802) [nM]	IC50 (purified HLA DRB1*1201) [nM]	IC50 (purified HLA DRB1*1501) [nM]	IC50 (purified HLA DRB3*0101) [nM]	IC50 (purified HLA DRB5*0101) [nM]	SMILES	Percent of patients with responses [1] [%]	patient response rate on exclusion of one healthy individual with a robust response ([1]; recalculated cutoff, FIG. 1) [%]
10	–	–	–	–	–	–	–	–	CC[C@H](C)[C@H](N)C(=O)N[C@@H](CCCCN)C(=O)N[C@@H](Cc1c[nH]c2ccccc12)C(=O)N[C@@H](CCSC)C(=O)N[C@@H](C)C(=O)N[C@@H](CC(C)C)C(=O)N[C@@H](CCC(=O)O)C(=O)N[C@@H](CO)C(=O)N[C@H](C(=O)N[C@@H](CC(C)C)C(=O)N[C@@H](CCCNC(=N)N)C(=O)N[C@@H](CCCNC(=N)N)C(=O)N[C@@H](CCCNC(=N)N)C(=O)N[C@@H](Cc1ccccc1)C(=O)N[C@H](C(=O)O)[C@@H](C)O)[C@@H](C)CC [Peptide 9019.0003]	4	15
–	1470	7860	426	263	1560	61	> 20000	4010	CC[C@H](C)[C@H](NC(=O)[C@H](CS)NC(=O)[C@H](Cc1c[nH]c2ccccc12)NC(=O)[C@@H](N)CCCNC(=N)N)C(=O)N1CCC[C@H]1C(=O)N[C@@H](Cc1c[nH]c2ccccc12)C(=O)N[C@@H](CCC(N)=O)C(=O)N[C@@H](CCCNC(=N)N)C(=O)N[C@@H](CC(C)C)C(=O)N[C@@H](CC(C)C)C(=O)N[C@@H](CC(C)C)C(=O)N[C@H](C(=O)N[C@@H](C)C(=O)N[C@@H](CO)C(=O)N[C@@H](CC(C)C)C(=O)O)[C@@H](C)O [Peptide 9019.0104]	–	–
10	–	–	–	–	–	–	–	–	CC[C@H](C)[C@H](NC(=O)[C@@H](NC(=O)[C@H](CC(C)C)NC(=O)[C@H](CCCCN)NC(=O)[C@H](C)NC(=O)[C@@H](NC(=O)[C@@H](NC(=O)[C@@H]1CCCN1C(=O)[C@@H]1CCCN1C(=O)[C@H](CC(N)=O)NC(=O)[C@H](Cc1c[nH]c2ccccc12)NC(=O)[C@H](Cc1ccccc1)NC(=O)[C@@H](NC(=O)[C@H](CC(C)C)NC(=O)[C@@H](N)CC(C)C)[C@@H](C)O)[C@@H](C)O)[C@@H](C)O)[C@@H](C)O)C(=O)O [Peptide 9019.0105]	17	–
